Values after ≈ are worked out from the molar mass of the structure shown. Starred links: 1 amine or outer side, 2 acyl side, 3 side chain; linkers in the order of their positions; H or OH if unused. Non-standard residues stand in square brackets, D forms with d. Residues, ends and D or L forms follow the SMILES beside them. ξ: configuration not given here. X1 = CN(CCc1ccc(Oc2cccc(CCC(=O)[*:2])c2)cc1)[*:1]; NMeY = CN[C@@H](Cc1ccc(O)cc1)C(=O)O; ξA = CC(N)C(=O)O
System: L1210
Experiment: In vitro cytotoxicity against L1210 (murine leukemia) cells.
Assay type: functional, cell-based
Conditions: Mus musculus

Compound | IC50 [µg/mL]
COC(=O)[C@@H]1Cc2ccc(OC)c(c2)Oc2ccc(cc2)CCC(=O)N1 | > 100
COC(=O)[C@@H]1Cc2ccc(OC)c(c2)Oc2ccc(cc2)C[C@H](N(C)C(=O)OC(C)(C)C)C(=O)N1 | 0.06 (≈ 0.124 µM)
COc1ccc2cc1Oc1ccc(cc1)CCC(=O)NCC2 | > 100
O=C1CCc2ccc(cc2)Oc2cccc(c2)CCN1 | > 100
COC(=O)[C@@H]1Cc2ccc(OC)c(c2)Oc2ccc(cc2)C[C@H](N(C)C(=O)OCc2ccccc2)C(=O)N1C | 0.04 (≈ 0.0751 µM)
COC(=O)[C@@H]1Cc2ccc(O)c(c2)Oc2ccc(cc2)CCC(=O)N1 | > 100
CN1CCc2cccc(c2)Oc2ccc(cc2)CCC1=O | > 100
COc1ccc(C[C@H]2C(=O)N[C@@H](C)C(=O)N(C)Cc3ccccc3CC(=O)N[C@H](C)C(=O)N[C@@H](C)C(=O)N2C)cc1 | 25 (≈ 44.2 µM)
COc1ccc(C[C@H]2C(=O)N[C@@H](C)C(=O)N[C@H](C)C(=O)N[C@@H](C)C(=O)N2C)cc1 | 20 (≈ 49.4 µM)
COc1ccc(C[C@H]2C(=O)N[C@@H](C)C(=O)N(C)[C@H]3Cc4ccc(cc4)Oc4cc(ccc4OC)C[C@H](NC3=O)C(=O)N[C@H](C)C(=O)N[C@@H](C)C(=O)N2C)cc1 | 0.001 (≈ 0.00132 µM)
COc1ccc(C[C@H]2C(=O)N[C@@H](C)C(=O)N(C)[C@H]3Cc4ccc(cc4)Oc4cc(ccc4O)C[C@@H](C(=O)N[C@H](C)C(=O)N[C@@H](C)C(=O)N2C)N(C)C3=O)cc1 | 0.002 (≈ 0.00264 µM)
COc1ccc(C[C@H]2C(=O)N[C@@H](C)C(=O)N(C)[C@@H](Cc3ccc(O)cc3)C(=O)N(C)[C@@H](Cc3ccc(O)cc3)C(=O)N[C@H](C)C(=O)N[C@@H](C)C(=O)N2C)cc1 | > 100
COc1ccc(C[C@H]2C(=O)N[C@@H](C)C(=O)N(C)CC(=O)N(C)CC(=O)N[C@H](C)C(=O)N[C@@H](C)C(=O)N2C)cc1 | > 100
CN[C@H]1Cc2ccc(O)c(c2)Oc2ccc(cc2)C[C@@H](C(=O)O)N(C)C(=O)[C@H](C)NC(=O)[C@H](Cc2ccc(OC)cc2)N(C)C(=O)[C@H](C)NC(=O)[C@@H](C)NC1=O | 10 (≈ 12.9 µM)
COc1ccc(C[C@H]2C(=O)N[C@@H](C)C(=O)N(C)[C@H]3Cc4ccc(cc4)Oc4cc(ccc4OC)C[C@@H](C(=O)N[C@H](C)C(=O)N[C@@H](C)C(=O)N2C)N(C)C3=O)cc1 | 0.002 (≈ 0.00259 µM)
COC(=O)[C@@H]1Cc2ccc(OC)c(c2)Oc2ccc(cc2)C[C@H](N(C)C(=O)OC(C)(C)C)C(=O)N1C | 0.03 (≈ 0.0602 µM)
COc1ccc(C[C@H]2C(=O)N[C@@H](C)C(=O)N(C)[C@H]3C(=O)N(C)[C@H]3C(=O)NC(C)C(=O)N[C@@H](C)C(=O)N2C)cc1 (stereo partly specified) | 50 (≈ 91.8 µM)
COc1ccc2cc1Oc1ccc(cc1)CCC(=O)N(C)CC2 | > 100
COC(=O)[C@@H]1Cc2ccc(OC)c(c2)Oc2ccc(cc2)C[C@H](N(C)C(=O)OCc2ccccc2)C(=O)N1 | 0.05 (≈ 0.0964 µM)
COC(=O)[C@@H]1Cc2ccc(cc2)Oc2cc(ccc2OC(=O)c2ccccc2)C[C@H](N(C)C(=O)OCc2ccccc2)C(=O)NC(C)C(=O)N[C@@H](C)C(=O)N(C)[C@@H](Cc2ccc(OC)cc2)C(=O)N[C@@H](C)C(=O)N1C (stereo partly specified) | 10 (≈ 9.74 µM)
COc1ccc(C[C@H]2C(=O)N[C@@H](C)C(=O)N(C)CCc3ccc(cc3)Oc3cccc(c3)CCC(=O)NC(C)C(=O)N[C@@H](C)C(=O)N2C)cc1 (stereo partly specified) (cyclo(A[NMeY](Me)A[X1][ξA])) | 20 (≈ 29.2 µM)

— ChEMBL document CHEMBL1125992, “Evaluation of bouvardin, deoxybouvardin, and RA-I - RA-VII partial structures: reassignment of the pharmacophore” (Bioorg Med Chem Lett, 1991)
